For data set [1], the system named is β-glucuronidase. As to the kind of experiment: Incubation with β-glucuronidase. The format is biochemical. As to the method:
The free acid form of the compound was formed by treating the 2,4-dinitrophenyl-methyl(tri-O-acetyl-β-D-glucopyranosyl bromide)-uronate with a one-half molar amount of barium hydroxide to produce the barium salt. This barium salt of the glucuronide precipitates as a white amorphous material. An equimolar solution of H2 SO4 releases the free glucuronide. Distillation of the supernatant yielded bright yellow-brown crystals having a melting point of 179°-180° C.

The conditions of data set [2]: alkaline vs acid pH; cited from earlier work.
The test system of data set [3] is β-glucuronidase. The note with it: cited from earlier work.
Data set [4] in a line: Acute intravenous toxicity to rabbits, full scale test. The format is in vivo, NZW rabbits. The following applies: for acute median lethal intravenous dose (LD 50): 10% solution, 95% confidence limits, method of Weil. As for the experimental part: (§1) NZW rabbits in the weight range of 2,000 to 3,200 g for females and 2,200 to 3,800 g for males were injected intravenously with mandelonitrile β-D-glucuronic acid solution. Rabbits injected with saline alone served as the control. The mandelonitrile β-D-glucuronic acid solution contained 10% mandelonitrile.
(§2) During the 14 day observation period a record was kept of all mortalities and signs of toxicity.
Dosing was then extended to larger groups of rabbits (5 males and 5 females per group) in order to locate the median lethal dose more precisely.
All the deaths of all the groups occurred within 3 hours after dosing.
The acute median lethal intravenous dose (LD 50) and its 95% confidence limints calculated by the method of Weil, C. S., 1952, Biometrics, 8:249, to rabbits of mandelonitrile-β-D-glucuronic acid 10% solution are calculated to be: […]

Data set [5] in a line: Acute intravenous toxicity to rabbits, range finding screen. The format is in vivo, NZW rabbits. The note with it: i.v.; for Mortality ratio: 14 day observation. As to the method:
as §1, §2

Data set [6] relates to trophoblastic cells. The note with it: reported; cited from earlier work.
The conditions of data set [7]: in vivo; cited from earlier work.

Some results are limits rather than exact numbers.

Take `O=C(O)[C@H]1O[C@@H](Oc2ccc([N+](=O)[O-])cc2[N+](=O)[O-])[C@H](O)[C@@H](O)[C@@H]1O` [2,4-dinitrophenol-β-D-glucuronic acid]: the “product on incubation with β-glucuronidase” value in data set [1] was “produced 2,4-dinitrophenol”.
`Cc1cc(O)cc(C)c1Cl` [4-chloro-3,5-xylanol]: in data set [2], the pH-dependent solubility result is “water soluble at alkaline pH's and lipid-soluble at acid pH's”.
Regarding `Oc1c(I)cc(Cl)c2cccnc12` [5-chloro-7-iodo-8-quinolinol], the pH-dependent solubility result in data set [2] was “water soluble at alkaline pH's and lipid-soluble at acid pH's”.
`N#C[C@H](O[C@@H]1O[C@H](CO[C@@H]2O[C@H](CO)[C@@H](O)[C@H](O)[C@H]2O)[C@@H](O)[C@H](O)[C@H]1O)c1ccccc1` [amygdalin]: the “splitting by the enzyme β-glucuronidase” value in data set [3] is on record as “cannot be split”.
On to `N#CC(O[C@@H]1O[C@H](C(=O)O)[C@@H](O)[C@H](O)[C@H]1O)c1ccccc1` (stereo partly drawn) [mandelonitrile β-D-glucuronic acid, Mandelonitrile β-D-glucuronic acid], for which the “Time of all the deaths of all the groups after dosing” value in data set [4] (all groups, i.v.) was at most 3 h. In data set [4] (believed, from the rabbit data), this compound returned a maximum safe dose of around 0.44 ml/kg body weight. The “acute median lethal intravenous dose (LD 50)” value is given as 0.6873 (0.6442-0.7304) ml/kg body weight in data set [4] (females) and 0.8419 (0.7809-0.9029) ml/kg body weight in data set [4] (males). Also, the Mortality ratio in data set [4] (females, i.v., 0.44 ml/kg) is given as 0/5; in data set [4] (females, i.v., 0.66 ml/kg), 2/5; in data set [4] (females, i.v., 1.0 ml/kg) it was 5/5; in data set [4] (females, i.v., 1.5 ml/kg), 5/5; in data set [4] (females, i.v., 2.25 ml/kg), 5/5; in data set [4] (males, i.v., 0.44 ml/kg) it was 0/5. Besides, the Mortality ratio is given as 2/5 in data set [4] (males, i.v., 0.66 ml/kg); 3/5 in data set [4] (males, i.v., 1.0 ml/kg); 4/5 in data set [4] (males, i.v., 1.5 ml/kg); 5/5 in data set [4] (males, i.v., 2.25 ml/kg); 0/2 in data set [5] (0.25 ml/kg); 1/2 in data set [5] (0.5 ml/kg). The Mortality ratio in data set [5] (1.0 ml/kg), in data set [5] (2.0 ml/kg) and in data set [5] (4.0 ml/kg) was 2/2 each time. Also, the “Time of death after dosing: No of hours” value in data set [4] (females, i.v., 0.66 ml/kg) was below 3 h; in data set [4] (females, i.v., 1.0 ml/kg), below 3 h; in data set [4] (females, i.v., 1.5 ml/kg) it was below 3 h; in data set [4] (females, i.v., 2.25 ml/kg) it was below 3 h; in data set [4] (males, i.v., 0.66 ml/kg), below 3 h; in data set [4] (males, i.v., 1.0 ml/kg), below 3 h. Further, the “Time of death after dosing: No of hours” value was below 3 h in data set [4] (males, i.v., 1.5 ml/kg) and below 3 h in data set [4] (males, i.v., 2.25 ml/kg). Moreover, the “Time of death after dosing: No. of animals” value in data set [4] (females, i.v., 0.66 ml/kg) is reported as 2 animals; in data set [4] (females, i.v., 1.0 ml/kg), 5 animals; in data set [4] (females, i.v., 1.5 ml/kg), 5 animals; in data set [4] (females, i.v., 2.25 ml/kg), 5 animals; in data set [4] (males, i.v., 0.66 ml/kg), 2 animals; in data set [4] (males, i.v., 1.0 ml/kg) it was 3 animals. Also, the “Time of death after dosing: No. of animals” value in data set [4] (males, i.v., 1.5 ml/kg) was determined as 4 animals; in data set [4] (males, i.v., 2.25 ml/kg), 5 animals. Also, the “Clinical symptoms of surviving animals” value in data set [4] (following 14 days) was “did not show any clinical symptoms”. Further, the “Autopsy of all animals” value in data set [4] (gross pathology) was “did not show clear gross pathological changes”. The “Signs of reaction to treatment” value in data set [4] (observed 2 minutes after dosing, i.v.) is “ataxia and paralysis”. Besides, the Early deaths result in data set [4] (two minutes after the signs of reaction, high dose group) was “a few animals of the high dose group died”. Also, in data set [5] (rabbits, preliminary range finding), the “median lethal intravenous dose (LD-50)” value was 0.23-2 ml per kg body weight.
With `C[C@]12CC[C@H]3[C@@H](CCC4=CC(=O)CC[C@@]43C)[C@@H]1CC[C@@H]2O` [testosterone], the “β-glucuronidase activity in trophoblastic cells” value in data set [6] is “induce β-glucuronidase activity”.
Neomycin: the known adverse effect entry in data set [7] is “cannot be administered internally because of its toxicity”.
